What was measured:
[1] = Relative ion enhancement, determined in pulsed ultrafiltration; format: ADME
[2] = biological target: T1, Adenosine deaminase (Homo sapiens) (UniProt P00813)
T1 sequence (whole entry): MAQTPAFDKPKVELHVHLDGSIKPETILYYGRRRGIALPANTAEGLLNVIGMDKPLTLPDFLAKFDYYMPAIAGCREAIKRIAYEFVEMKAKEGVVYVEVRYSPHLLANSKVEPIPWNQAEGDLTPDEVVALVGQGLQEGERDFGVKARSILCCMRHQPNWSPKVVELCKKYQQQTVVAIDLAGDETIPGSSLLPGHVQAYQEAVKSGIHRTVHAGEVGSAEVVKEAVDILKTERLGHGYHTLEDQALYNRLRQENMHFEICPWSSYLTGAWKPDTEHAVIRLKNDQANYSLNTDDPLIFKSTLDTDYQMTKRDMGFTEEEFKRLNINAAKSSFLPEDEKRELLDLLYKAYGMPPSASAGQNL
Description: Adenosine deaminase inhibition index

Row | Ion enhancement [1] | ([I]/[S]0.5) [2] | SMILES
1 | 5.3 | 0.00016 | CCCCCCCCC(C(C)O)n1cnc2c(N)ncnc21 (stereo unspecified)
2 | < 0.01 | 0.069 | CC(O)C(Cc1ccccc1)n1cnc2c(N)ncnc21 (stereo unspecified)
3 | 1 | 0.00042 | CCCCCC[C@@H]([C@@H](C)O)n1cnc2c(N)ncnc21 [EHNA]

From ChEMBL document CHEMBL1130254, “Screening solution-phase combinatorial libraries using pulsed ultrafiltration/electrospray mass spectrometry” (J Med Chem, 1997)
